Measurements taken from patent US11300570B2, “Therapeutic and diagnostic methods for cancer” (Genentech, Inc., priority 2016, dated 2022).

Test system: locally advanced or metastatic NSCLC
Assay: OAK Phase III randomized trial, atezolizumab vs docetaxel, in 2L+ NSCLC, efficacy by tTMB
Format: in vivo, human
Details: for Median OS / Median PFS: 2L+ OAK
Source text: Patients were eligible for enrollment in the POPLAR study if they had locally advanced or metastatic (e.g., stage IIIB, stage IV, or recurrent) NSCLC; disease progression during or following treatment with a prior platinum-containing regimen for locally advanced, unresectable/inoperable, or metastatic NSCLC, or disease recurrence within 6 months of treatment with a platinum-based adjuvant/neoadjuvant regimen; measurable disease, as defined by RECIST v1.1; and an ECOG performance status of 0 or 1. Participants were randomized to receive either atezolizumab at a dose of 1200 mg intravenously every three weeks or docetaxel 75 mg per meter square (mg/m^2) intravenously every three weeks. Treatment with atezolizumab could be continued as long as participants were experiencing clinical benefit, i.e., in the absence of unacceptable toxicity or symptomatic deterioration attributed to disease progression. Pre-treatment tumor samples from patients in the Phase III OAK trial (Clinical Trial ID No.: NCT02008227) were also evaluated for tTMB. Patients were eligible for enrollment in the OAK study if they had locally advanced or metastatic (e.g., stage IIIB, stage IV, or recurrent) NSCLC; disease progression during or following treatment with a prior platinum-containing regimen for locally advanced, unresectable/inoperable, or metastatic NSCLC, or disease recurrence within 6 months of treatment with a platinum-based adjuvant/neoadjuvant regimen; measurable disease, as defined by RECIST v1.1; and an ECOG performance status of 0 or 1. Participants were randomized to receive either atezolizumab at a dose of 1200 mg intravenously every three weeks or docetaxel 75 mg per square meter (mg/m^2) intravenously every three weeks. Treatment with atezolizumab could be continued as long as participants were experiencing clinical benefit, i.e., in the absence of unacceptable toxicity or symptomatic deterioration attributed to disease progression.
To identify somatic mutations, tumor samples (e.g., archival tumor samples) were processed as described in Frampton et al. Nat. Biotechnol. 31:1023-31, 2013. Sequencing libraries were constructed to sequence and analyze samples. In addition to standard mutation processing, a mutation load estimation algorithm was applied that, based on the number of somatic mutations and/or rearrangements detected in Table 1 or Table 2, respectively, extrapolates to the exome or the genome as a whole. For purposes of mutation load estimation, all coding short variant alterations, base substitutions, and indels detected in the genes listed in Table 1 and Table 2 were counted. Further, all coding alterations (base substitutions and indels), including synonymous alterations, with the exception of known oncogenic driver mutations, in the genes listed in Table 1 and Table 2 were counted. However, numerous classes of detected alterations were not counted: non-coding alterations; alterations with known (occurring as known somatic alterations in the COSMIC database (Forbes et al. (2014) Nucl. Acids Res. 43:D805-11) and likely (truncations in tumor suppressor genes) functional status; known germline alterations in the dbSNP database (Sherry et al. (2001) Nucleic Acids Res. 29(1):308-11); germline alterations occurring with two or more counts in the ExAC database (Exome Aggregation Consortium (ExAC), Cambridge, Mass.); alterations that are predicted to be germline in the specimen being assessed; and alterations that are predicted to be germline in a cohort of >60,000 clinical specimens. Finally, to calculate the mutation load per megabase, the total number of mutations counted was divided by the coding region target territory of the test, which was 1.110 megabases (Mb) for the current version of the test. The average median coverage value for all samples was 490.
The BEP was defined as patients with at least one tTMB measurement from a baseline tumor sample. […]

[1] = BEP (evaluable for TMB) (n = 174 atezolizumab, 186 docetaxel)
[2] = tTMB score <9 mut/Mb (n = 91 atezolizumab, 87 docetaxel)
[3] = tTMB score <16 mut/Mb (n = 135 atezolizumab, 136 docetaxel)
[4] = tTMB score ≥9 mut/Mb (n = 83 atezolizumab, 99 docetaxel)
[5] = tTMB score ≥16 mut/Mb (n = 39 atezolizumab, 50 docetaxel)

In the case of atezolizumab, the “Median OS” value [1] is reported as 13.3 months, the “Median PFS” value [1] is reported as 2.0 months and the “Median OS” value (ITT (n = 425 per arm)) is reported as 13.8 months. For the same substance, the “Median PFS” value (ITT (n = 425 per arm)) was 2.0 months, the “Median OS” value [2] was 14.2 months and the “Median PFS” value [2] was 1.8 months. For the same substance, the “Median OS” value [3] was 12.7 months, the “Median PFS” value [3] was 1.7 months and the “Median OS” value [4] was 13.3 months. For the same substance, the “Median PFS” value [4] was 2.5 months, the “Median OS” value [5] was 18.7 months and the “Median PFS” value [5] was 5.5 months. For the same substance, the “association of tissue TMB with efficacy” value (OAK study) was “associated with improved efficacy”.
